{"source": "patent US10463630B2", "about": "“Interaction of methylated LSD1 and CHD1, a compound inhibiting this interaction for use in therapy, and a screening method for such a compound” (Albert-Ludwigs-Universität Freiburg, priority 2015, dated 2019)", "key": {"[1]": {"test_system": "LAPC4 cells", "assay": "Chromosome conformation capture (3C), TMPRSS2 enhancer-breakpoint loop", "assay_type": "cell-based", "conditions": "DHT, Bix-01294, FIG. 4b", "quoted_text": "LNCaP cells were grown for 72 hours in medium supplemented with 10% double-stripped FCS, treated for 210 min with or without DHT 10^−7 M, washed in PBS, and trypsinized 2 min at 37° C. After washing, cells were resuspended in PBS, filtered through a 40 μm cell strainer and collected in an ice cold 2% formaldehyde solution. After 15 min incubation at 4° C., fixation was stopped by adding glycine and cells were pelleted. After washing, cells were resuspended in nuclear isolation buffer (10 mM HEPES-KOH pH 7.9, 1.5 mM MgCl2, 10 mM KCl, 0.5 mM DTT, Complete protease inhibitor cocktail, Roche), allowed to swell on ice for 10 min, vortexed for 10 seconds at low speed, and pelleted. Isolated nuclei were resuspended in NEB restriction buffer, SDS was added to a final concentration of 0.5%, and nuclei were incubated for 1 h at 37° C. while shaking. Upon addition of Triton X-100, samples were incubated for 1 h at 37° C. to sequester SDS. 50 μl of the sample were taken and used as an undigested control. 600 U restriction enzyme were added and samples were incubated overnight at 37° C. while shaking. 40 μl 20% SDS solution was added and incubated for 20 min at 65° C. to inactivate the restriction enzyme. […] Purified DNA samples were analyzed on a Roche LightCycler®480 by TaqMan-based qPCR. […] To verify Enhancer-Breakpoint PCR product, samples were analyzed on a 2% agarose gel and sequenced. […]"}, "[2]": {"test_system": "LNCaP cells", "assay": "Chromatin immunoprecipitation (ChIP) at AREs of TMPRSS2 and KLK3 enhancers", "assay_type": "cell-based, human", "conditions": "for chromatin occupancy of G9A: presence or absence of DHT and Bix-01294", "procedure": "ChIP experiments were performed essentially as previously described^10. LNCaP and LAPC4 cells were cultured for 210 min in the absence or presence of 1×10^-7 M DHT as indicated. Three days before harvesting, cells were transfected with siRNA against LSD110, G9A20, or CHD121 that were previously described and validated using Dharmafect2 (Thermo Scientific) following the manufacturer's instructions. Immunoprecipitation was performed with specific antibodies (α-AR (N-20), #sc-816, lot A0207, Santa Cruz), α-LSD1 (#20752, Schuele Laboratory), α-LSD1 K114me2 (#4871, Schuele Laboratory), α-CHD1 (#A301-218A, lot A301-218A-1, Bethyl Laboratories), α-G9A (#ab40542, lot GR170862-1, Abcam) on protein A-Sepharose 4B (GE-Healthcare). For PCR, 2 μl out of 70 μl DNA extract were used. Primer sequences were as follows: TMPRSS2 enhancer (−13782/−13866) 5′-[…]-3′ (SEQ ID NO:1) and 5′-[…]-3′ (SEQ ID NO:2); KLK3 enhancer (−3980/−4048) 5′-[…]-3′ (SEQ ID NO:3) and 5′-[…]-3′ (SEQ ID NO:4); control (chr6:151953789-151953927) 5′-[…]-3′ (SEQ ID NO:5) and 5′-[…]-3′ (SEQ ID NO:6).\nLNCaP cells were cultured and transfected as described^10."}, "[3]": {"test_system": "LNCaP cells", "assay": "Expression of androgen-regulated genes (quantitative RT-PCR)", "assay_type": "cell-based, human", "conditions": "1×10^−5 M Bix-01294, FIG. 3j"}, "[4]": {"test_system": "LNCaP cells", "quoted_text": "LNCaP cells were grown for 72 hours in medium supplemented with 10% double-stripped FCS, treated for 210 min with or without DHT 10^−7 M, washed in PBS, and trypsinized 2 min at 37° C. After washing, cells were resuspended in PBS, filtered through a 40 μm cell strainer and collected in an ice cold 2% formaldehyde solution. After 15 min incubation at 4° C., fixation was stopped by adding glycine and cells were pelleted. After washing, cells were resuspended in nuclear isolation buffer (10 mM HEPES-KOH pH 7.9, 1.5 mM MgCl2, 10 mM KCl, 0.5 mM DTT, Complete protease inhibitor cocktail, Roche), allowed to swell on ice for 10 min, vortexed for 10 seconds at low speed, and pelleted. Isolated nuclei were resuspended in NEB restriction buffer, SDS was added to a final concentration of 0.5%, and nuclei were incubated for 1 h at 37° C. while shaking. Upon addition of Triton X-100, samples were incubated for 1 h at 37° C. to sequester SDS. 50 μl of the sample were taken and used as an undigested control. 600 U restriction enzyme were added and samples were incubated overnight at 37° C. while shaking. 40 μl 20% SDS solution was added and incubated for 20 min at 65° C. to inactivate the restriction enzyme. […] Purified DNA samples were analyzed on a Roche LightCycler®480 by TaqMan-based qPCR. […] To verify Enhancer-Breakpoint PCR product, samples were analyzed on a 2% agarose gel and sequenced."}, "[5]": {"test_system": "LAPC4 cells", "assay": "Expression of androgen-regulated genes (quantitative RT-PCR)", "assay_type": "cell-based", "conditions": "1×10^−5 M Bix-01294, FIG. 3k"}, "[6]": {"test_system": "LNCaP cells", "conditions": "DHT 10^−6 M, 3 days, FIG. 4f", "quoted_text": "Expression analysis of TMPRSS2-ERG (FIG. 4f) was done essentially as previously described. […] HPRT was used for normalization.\n(§1) LNCaP cells were cultured and transfected as described^10. […] For FISH and analysis of TMPRSS2-ERG expression (FIG. 4f,g) cells were transfected with siRNAs height and five days before harvesting; DHT 10^−6 M was added to the cells as indicated 3 days before harvesting. […] Cells were cultivated for 3 days (FIG. 4f, g) with DHT 10^−6 M as indicated."}, "[7]": {"test_system": "LNCaP cells", "conditions": "DHT 10^−6 M, 3 days, FIG. 4g", "quoted_text": "as §1\nTo determine TMPRSS2-ERG fusion status in LNCaP cells, a FISH break-apart assay was performed as described previously^41. The FISH probe consists of two BAC clones spanning the centromeric and telomeric region of the ERG locus on chromosome 21q22.2: RP11-24A11 labelled with biotin-14-dCTP (red) and RP11-137J13 labelled with digoxigenin-dUTP (green). After harvesting, LNCaP cells were incubated with 0.075 M KCl at 37° C. for 15 min and fixed on slides (acetic acid/methanol 1:3). Slides were pre-treated with 2×SSC at 37° C. for 60 min, digested with 1:25 Digest-A11 III at 37° C. for 6 min and dehydrated in an ascending ethanol series. The probes were denatured at 73° C. for 5 min and subsequently co-denaturized with the cells (85° C., 4 min). Hybridization of the two probes was performed at 37° C. overnight. […] Finally slides were counterstained with DAPI and mounted and independently evaluated by two persons."}, "[8]": {"target": "T1, CHD1 D425A (Homo sapiens, UniProt O14646, D425A)", "T1 construct": "titration of LSD1aa104-127 K114me0, 1, 2, and 3 peptides to CHD1aa270-443; made in house; E. coli likely, inferred from the pET15b vector of the wild-type fragment", "T1 sequence (O14646 270-443 D425A)": "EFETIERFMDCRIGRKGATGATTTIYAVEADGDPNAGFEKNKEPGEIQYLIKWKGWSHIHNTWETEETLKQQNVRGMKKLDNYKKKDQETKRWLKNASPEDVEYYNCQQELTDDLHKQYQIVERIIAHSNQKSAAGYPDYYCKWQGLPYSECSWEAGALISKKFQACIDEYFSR", "assay": "ITC with CHD1 D425A mutant", "assay_type": "binding", "conditions": "data not shown", "description": "Amino acid residues 110-116 of the LSD1 peptide were modelled according to the electron density (FIG. 2c). […] This interaction involves residues Y295, W322, W325 from chromodomain 1 and D408 and D425 from chromodomain 2 (FIG. 2b and FIG. 5a). The methylammonium group of LSD1 K114 and side chains of W322 and W325 of CHD1 form cation-π interactions. […] It was therefore hypothesized that the R113-D425 interaction may be a discriminating feature of CHD1 binding either LSD1 K114me2 or H3K4me3 peptide and that the corresponding surface could be exploited for the design of inhibitors specifically interfering with LSD1 K114me2 but not H3K4me3 interaction (see FIG. 5c). […] Next, it was tested whether in vivo the interaction of CHD1 with LSD1 depends on LSD1 methylation. In the presence of G9A, endogenous CHD1 only coimmunoprecipitated with methylated Flag-LSD1, but not with Flag-LSD1 K114A (FIG. 2d). To investigate whether CHD1 and LSD1 K114me2 are present in the same protein complex, LNCaP cell extracts were subjected to sucrose gradient centrifugation. […] Furthermore, endogenously expressed CHD1 and LSD1 K114me2 coimmunoprecipitated with G9A from LNCaP cell extracts (FIG. 2f). Together, these observations identify CHD1 as a LSD1 K114me2 reader.\nITC experiments were performed at 25° C. with a MicroCal VP-ITC microcalorimeter (GE Healthcare). […]"}, "[9]": {"target": "T2, CHD1aa270-443 (Homo sapiens, UniProt O14646)", "T2 construct": "titration of LSD1aa104-127 K114me0, 1, 2, and 3 peptides to CHD1aa270-443; made in house; E. coli likely, inferred from the pET15b vector", "T2 sequence (O14646 270-443)": "T1 sequence (O14646 270-443 D425A) with A156D", "assay": "Isothermal titration calorimetry (ITC) of peptides titrated to CHD1", "assay_type": "binding", "conditions": "FIG. 2a", "procedure": "ITC experiments were performed at 25° C. with a MicroCal VP-ITC microcalorimeter (GE Healthcare). Experiments were performed by injecting 12 μl of peptide (1.5 mM) into the sample cell containing 100 μM CHD1 in 20 mM BTP pH 8, 75 mM NaCl. A total of 24 injections were performed with a spacing of 240 s and a reference power of […]. Automated baseline assignment and peak integration were performed with NITPIC version 1.0.1.^26. Isotherms were plotted, with a single-site binding model, using SEDPHAT version 10.58d^26. Isotherms were subsequently validated by one dimensional error surface projections in SEDFIT^27."}, "[10]": {"target": "T3, CHD1 double chromodomain (GST-CHD1 Chromo 1/2) (Homo sapiens, UniProt O14646)", "T3 sequence (O14646 268-443 limits assumed)": "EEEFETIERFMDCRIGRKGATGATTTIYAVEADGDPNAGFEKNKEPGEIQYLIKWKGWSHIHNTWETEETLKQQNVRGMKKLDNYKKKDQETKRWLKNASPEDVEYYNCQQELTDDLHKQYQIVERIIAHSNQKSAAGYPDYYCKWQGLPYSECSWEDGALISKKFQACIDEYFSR", "assay": "Protein profiling on protein-domain microarrays with LSD1 peptides", "assay_type": "binding", "conditions": "GST-fusion proteins", "procedure": "To identify potential LSD1 K114me2 methyl-lysine reader proteins, protein profiling was performed on protein-domain microarrays using un- and dimethylated LSD1 peptides LSD1aa104-127 and LSD1aa104-127 K114me2, respectively (see also ref.^14). In this profiling assay, several GST-fusion proteins including CHD1 fused to GST were used. Other GST-fusions that were used were e.g. PhD-domain proteins (BPTF, ING2 or PHF2), BROMO-domain proteins (GCN5, TAF1-D1 or TAF1-D2), or BRCT-proteins (BRCA1, 53BP1 or Crb2)."}}, "note": "Residue numbers refer to the chain shown, from its start."}
{"molecule": "COc1cc2nc(N3CCCN(C)CC3)nc(NC3CCN(Cc4ccccc4)CC3)c2cc1OC", "note": "[Bix-01294]", "values": [{"measurement": "androgen-dependent TMPRSS2 enhancer-breakpoint loop formation", "setting": "[1]", "result": "blocked this loop formation"}, {"measurement": "chromatin occupancy of G9A", "setting": "[2]; ChIP", "result": "not altered"}, {"measurement": "androgen-induced methylation of LSD1 and androgen-induced recruitment of CHD1 and AR", "setting": "[2]; DHT, 1×10^−5 M Bix-01294, ChIP, FIG. 3g", "result": "blocked"}, {"measurement": "DHT-induced expression of TMPRSS2, KLK3, PRDM4, ELK4, GREB1, IGF1R, FKBP5, or EGFR", "setting": "[3]", "result": "greatly reduced"}, {"measurement": "androgen-dependent TMPRSS2 enhancer-breakpoint loop formation", "setting": "[4]; DHT, Bix-01294, FIG. 4a", "result": "blocked this loop formation"}, {"measurement": "DHT-induced expression of TMPRSS2, KLK3, PRDM4, ELK4, GREB1, IGF1R, FKBP5, or EGFR", "setting": "[5]", "result": "greatly reduced"}]}
{"molecule": "C[C@]12CCC(=O)C[C@@H]1CC[C@@H]1[C@@H]2CC[C@]2(C)[C@@H](O)CC[C@@H]12", "note": "[DHT, dihydrotestosterone]", "values": [{"measurement": "chromatin occupancy of G9A", "setting": "[2]; ChIP", "result": "not altered"}, {"measurement": "LSD1 K114me2 levels and CHD1 and AR occupancy of the TMPRSS2 and KLK3 genes", "setting": "[2]; DHT 10^−7 M, 210 min, ChIP", "result": "elevated LSD1 K114me2 levels accompanied by increased CHD1 and AR occupancy"}, {"measurement": "TMPRSS2-ERG transcript", "setting": "[6]", "result": "led to the production of TMPRSS2-ERG transcript"}, {"measurement": "TMPRSS2 enhancer-breakpoint interactions", "setting": "[4]; DHT 10^−7 M, 210 min, 3C", "result": "enhancer-breakpoint interactions upon treatment with DHT was observed"}, {"measurement": "ERG rearrangements by FISH", "setting": "[7]", "result": "induced ERG rearrangements"}]}
{"molecule": "H3K4me3 peptide: histone 3 peptide modified at lysine residue 4 by three methyl-groups", "values": [{"measurement": "effect of D425A mutation in CHD1 on peptide binding", "setting": "[8]", "result": "only mildly affected"}]}
{"molecule": "Unmethylated H3 peptide: unmethylated histone H3 peptide", "values": [{"measurement": "binding to GST-CHD1 Chromo 1/2", "setting": "[9]", "result": "did not bind"}]}
{"molecule": "Unmethylated LSD1: unmethylated LSD1 peptide LSD1aa104-127 (TPEGRRTSRRKRAKVEYREMDESL)", "values": [{"measurement": "binding to GST-CHD1 Chromo 1/2", "setting": "[9]", "result": "did not bind"}, {"measurement": "interaction with CHD1 double chromodomain on microarray", "setting": "[10]", "result": "not"}]}
